From the supplement of paper PMC10307832

Tests used:
Assay in all cases: relative viability (nuclei count vs DMSO), 5 days (fraction); higher = more cells survive
[1] = compound: C[C@@]1(C(=O)Nc2ccc(F)nc2)CCCN1c1nc(Nc2cc(C3CC3)n[nH]2)c2cccn2n1 + CC(=O)c1c(C)c2cnc(Nc3ccc(N4CCNCC4)cn3)nc2n(C2CCCC2)c1=O [Palbociclib] (partner 0.5 µM)
How it was run: (§1)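 Five library-drug doses in √10 steps were combined with a fixed anchor-drug dose, or a single drug was given alone, by pin tool to lung cancer cell lines in 1536-well plates the day after seeding. Nuclei were stained and counted after 5 days. Relative viability is the nuclei count in treated wells over that in vehicle wells, taken as the median of duplicate plates.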

[2] = compound: C[C@@]1(C(=O)Nc2ccc(F)nc2)CCCN1c1nc(Nc2cc(C3CC3)n[nH]2)c2cccn2n1 + NC(=O)Nc1cc(-c2cccc(F)c2)sc1C(=O)N[C@H]1CCCNC1 [AZD7762] (partner 0.2 µM)
How it was run: as §1

Motesanib + Alpelisib = compound: CC1(C)CNc2cc(NC(=O)c3cccnc3NCc3ccncc3)ccc21 [Motesanib] + Cc1nc(NC(=O)N2CCC[C@H]2C(N)=O)sc1-c1ccnc(C(C)(C)C(F)(F)F)c1 [Alpelisib] (partner 2 µM)
How it was run: as §1

[3] = compound: C[C@@]1(C(=O)Nc2ccc(F)nc2)CCCN1c1nc(Nc2cc(C3CC3)n[nH]2)c2cccn2n1 + CC(C)C[C@H](NC(=O)[C@H](Cc1ccccc1)NC(=O)c1cnccn1)B(O)O [Bortezomib] (partner 0.002 µM)
How it was run: as §1

| Cell Line | relative viability ([1]; first compound 0.04 µM) | relative viability ([1]; first compound 0.1265 µM) | relative viability ([1]; first compound 0.4 µM) | relative viability ([1]; first compound 1.265 µM) | relative viability ([2]; first compound 0.04 µM) | relative viability ([2]; first compound 0.1265 µM) | relative viability ([2]; first compound 0.4 µM) | relative viability ([2]; first compound 1.265 µM) | relative viability (Motesanib + Alpelisib; first compound 0.01 µM) | relative viability (Motesanib + Alpelisib; first compound 0.03162 µM) | relative viability (Motesanib + Alpelisib; first compound 0.1 µM) | relative viability (Motesanib + Alpelisib; first compound 0.3162 µM) | relative viability (Motesanib + Alpelisib; first compound 1 µM) | relative viability ([3]; first compound 0.04 µM) | relative viability ([3]; first compound 0.1265 µM) | relative viability ([3]; first compound 0.4 µM) | relative viability ([3]; first compound 1.265 µM) |
| --- | --- | --- | --- | --- | --- | --- | --- | --- | --- | --- | --- | --- | --- | --- | --- | --- | --- |
| NCI-H2342 | 0.505 | 0.598 | 0.47 | 0.48 | 0.475 | 0.375 | 0.404 | 0.323 | – | – | – | – | – | – | – | – | – |
| HCC-15 | 0.667 | 0.579 | 0.529 | 0.598 | 1.07 | 1.18 | 1.25 | 1.13 | 0.97 | 0.885 | 0.969 | 0.972 | 0.931 | 0.943 | 0.742 | 0.881 | 1 |
| A-427 | 0.497 | 0.459 | 0.459 | 0.472 | 0.64 | 0.642 | 0.647 | 0.427 | 1.12 | 1.08 | 1.05 | 1.09 | 1.04 | 1 | 0.995 | 0.897 | 1.01 |
| NCI-H2228 | 0.694 | 0.425 | 0.463 | 0.498 | – | – | – | – | 0.767 | 0.713 | 0.722 | 0.777 | 0.806 | 1.25 | 0.731 | 0.835 | 0.751 |
| NCI-H1734 | 0.275 | 0.236 | 0.226 | 0.282 | 0.54 | 0.459 | 0.377 | 0.446 | 0.711 | 0.608 | 0.719 | 0.72 | 0.746 | 0.856 | 0.781 | 0.641 | 0.577 |
| PC-14 | 0.552 | 0.469 | 0.49 | 0.491 | 0.391 | 0.394 | 0.308 | 0.348 | 0.958 | 1.03 | 0.998 | 0.931 | 0.958 | 0.846 | 0.715 | 0.674 | 0.799 |
| NCI-H1915 | 0.534 | 0.507 | 0.52 | 0.551 | 0.728 | 0.731 | 0.663 | 0.701 | 1.02 | 1.02 | 1.03 | 1.02 | 1.06 | 1.06 | 0.95 | 0.952 | 1.01 |
| NCI-H1666 | 0.647 | 0.627 | 0.599 | 0.603 | 0.838 | 0.667 | 0.642 | 0.552 | 0.799 | 0.977 | 0.949 | 1.02 | 1.16 | 0.678 | 0.434 | 0.455 | 0.444 |
| HCC-366 | 0.338 | 0.313 | 0.28 | 0.243 | 0.356 | 0.31 | 0.293 | 0.152 | 0.445 | 0.422 | 0.449 | 0.424 | 0.321 | 1.06 | 1.04 | 1 | 0.802 |
| SK-MES-1 | 0.34 | 0.355 | 0.293 | 0.282 | – | – | – | – | 1.04 | 0.948 | 0.961 | 0.927 | 0.995 | – | – | – | – |
| SW 1573 | 0.342 | 0.262 | 0.294 | 0.304 | – | – | – | – | 0.825 | 0.759 | 0.75 | 0.67 | 0.821 | 0.894 | 0.611 | 0.7 | 0.716 |
| NCI-H661 | 0.388 | 0.427 | 0.412 | 0.386 | – | – | – | – | 0.356 | 0.608 | 0.683 | 0.641 | 0.882 | 0.924 | 1.08 | 0.653 | 0.819 |
| PC-3 [JPC-3] | 0.557 | 0.467 | 0.516 | 0.549 | 0.7 | 0.689 | 0.551 | 0.415 | 1.09 | 1.03 | 1.07 | 1.09 | 1.03 | 0.831 | 0.819 | 0.788 | 0.874 |
| Calu-6 | – | – | – | – | – | – | – | – | 0.984 | 0.931 | 0.928 | 1.02 | 1.03 | 1.01 | 0.957 | 0.929 | 0.359 |
| LC-2-ad | 0.421 | 0.396 | 0.384 | 0.347 | 0.657 | 0.586 | 0.543 | 0.391 | 0.801 | 0.919 | 0.923 | 1.03 | 0.813 | 1.06 | 0.845 | 0.805 | 0.411 |
| CAL-12T | 0.407 | 0.407 | 0.358 | 0.164 | 0.659 | 0.765 | 0.78 | 0.677 | 1.22 | 1.31 | 1.26 | 1.44 | 1.11 | 1.12 | 0.826 | 0.957 | 0.734 |
| RERF-LC-KJ | 1.03 | 0.946 | 0.943 | 0.845 | 0.976 | 0.688 | 0.737 | 0.723 | 0.814 | 0.805 | 0.854 | 0.642 | 0.86 | 0.919 | 0.872 | 0.907 | 0.878 |
| NCI-H1650 | 0.324 | 0.36 | 0.328 | 0.314 | – | – | – | – | – | – | – | – | – | 0.185 | 0.248 | 0.185 | 0.174 |
| BEN | 0.445 | 0.484 | 0.472 | 0.427 | 0.809 | 0.645 | 0.67 | 0.676 | 1.07 | 1.08 | 0.897 | 0.972 | 1.18 | 1.11 | 0.785 | 0.815 | 0.903 |
| EMC-BAC-2 | 0.393 | 0.333 | 0.331 | 0.369 | 1.14 | 0.644 | 0.679 | 0.54 | 0.76 | 0.742 | 0.768 | 0.731 | 0.704 | 0.948 | 0.871 | 0.804 | 0.78 |
| LU99A | 0.273 | 0.208 | 0.173 | 0.26 | 0.294 | 0.243 | 0.223 | 0.143 | 0.465 | 0.555 | 0.511 | 0.488 | 0.559 | 0.984 | 0.837 | 0.623 | 0.445 |
